From patent publication US4489062A, “Pharmaceutical compounds, preparation, use and intermediates therefor and their preparation” (priority 1982, dated 1984)
Where a SMILES comes first, the peptide text is derived from it. [ ]: non-standard residue; d: D form. Phe(4-NO2) = N[C@@H](Cc1ccc([N+](=O)[O-])cc1)C(=O)O

Tests used:
Assay type in all cases: in vivo
[1] = test system: Male mice (CFLP strain); test: Hotplate test; conditions: 55° C. hotplate, 15 mins. after treatment, reaction time twice the pretreatment figure, Ex. compounds calculated as the peptide per se; for ED50: Mus musculus, sc
Source text: (§1) (1) Both the hotplate test (Woolfe and MacDonald, J. Pharmacol. Exp. Ther. 80:300, 1944) and the irritant-induced writhing (stretch) test (Vander Wende and Margolin, Fed. Proc. 15:494, 1956) are standard in the art for the investigation of analgesic activity. Whereas it is believed that the pain in the latter can be ameliorated either centrally or peripherally, it is thought that that induced in the hotplate test is affected only at the central level.
Male mice (CFLP strain, Hacking and Churchill) were individually placed in a copper-bottomed perspex box suspended in a water bath at 55° C. and observed for signs of discomfort such as shaking or licking the paws, the reaction time (up to a maximum of 30 secs.) being recorded. Groups of five animals then received either a test compound or saline vehicle (0.85%) control by subcutaneous injection, the test being repeated at 15 mins. after treatment. The ED50 figures for the test compounds were calculated from the number of animals having a posttreatment reaction time which was twice the pretreatment figure.

[2] = test system: male TFW mice; test: Antagonism by quaternary opioid (N-methylnalorphine) in acetic acid writhing test; conditions: for ED50: Mus musculus, 20 min, read-out: ED50 (mg/kg, s.c.) Saline control (b); for ED50 / ED50 (mg/kg, s.c.) Saline control (b): acetic acid writhing, saline i.p. 20 mins. before test compound s.c., Ex. compounds calculated as the peptide per se; for Dose ratio (a):(b): ratio of equiactive doses in presence and absence of N-methylnalorphine, calculated from the linear regression of the dose/response curves
Source text: (3) The analgesia induced by the peptides in the writhing test upon peripheral (parenteral) administration is antagonised by parenteral administration of the quaternary opioid antagonist N-allyl-normorphine methiodide (N-methylnalorphine; Koczka et al, Acta Chim. Acad. Sci. Hung. 51:393, 1967), i.e. a higher dose of the peptide is required in the presence than in the absence of the opioid for the same effect. As penetration of the blood-brain barrier by the quaternary compound is minimal (c.f. Tavani et al, European J. Pharmacol. 59:151-154, 1979) both the peptide-induced analgesia and the antagonism thereof are effected at the peripheral level.
Groups of six male TFW mice (Tuck) received by intraperitoneal injection either N-methylnalorphine (16 mg/kg) or saline vehicle (0.85%) control at a volume of 10 ml/kg followed after 20 mins. by a solution of the test compound in saline (10 ml/kg, subcutaneous) and after a further 30 mins. by 0.6% acetic acid (25 ml/kg, intraperitoneal). The total number of writhes/stretches per group was then determined over the 5 min. period commencing 15 mins. after administration of the acetic acid. Using linear regression analysis the ED50 figures for the test compounds were calculated (defined as in (B) supra) together with the dose ratios therefor, i.e. the ratios of the dose of compound required for equiactive antinociceptive effect in respectively the presence and the absence of the quaternary compound.

[3] = test system: female CD1 mice; test: Irritant-induced writhing test, acetic acid; conditions: s.c. 15 mins. prior to i.p. 0.6% acetic acid, Ex. compounds calculated as the peptide per se; for ED50: Mus musculus, 0.25 h
Source text: as §1
(§2) (i) Acetic Acid. Groups of five female CD1 mice (Charles River) received either a test compound or saline vehicle (0.85%) control by subcutaneous injection 15 mins. (unless otherwise indicated) prior to an intraperitoneal injection of 0.6% acetic acid at a dose volume of 25 ml/kg. After a further 20 mins. the writhing or stretching movements induced by the irritant were counted over a 21/2 min. period, a writhe/stretch being identified as an extension of a hindlimb accompanied by constriction of the abdomen.
(§3) The ED50 figures for the test compounds were calculated, using linear regression analysis, as the dose in the presence of which only half the number of writhes/stretches was induced compared with the controls.

[4] = test system: female CD1 mice; test: Irritant-induced writhing test, phenylbenzoquinone (PBQ); conditions: s.c. 15 mins. prior to PBQ 2.5 mg/kg, Ex. compounds calculated as the peptide per se; for ED50: Mus musculus, 0.25 h
Source text: as §1, §2
(ii) Phenylbenzoquinone (PBQ). This test was carried out in a parallel manner to that employing acetic acid, […], except that the period over which the writhing/stretching movements were counted began 10 mins. after administration of the PBQ irritant, the latter being given at a dosage of 2.5 mg/kg and in a dose volume of 10 ml/kg.
as §3

[5] = test system: guinea pigs; test: Antitussive activity (citric acid aerosol-induced cough); conditions: s.c. 30 minutes before 30% citric acid aerosol; calculated as the peptide per se; 95% confidence limits 0.04-2.6 mg/kg
Method: In this test procedure, a modification of that described by Boura et al., Br. J. Pharmac., 39/1 (1970) 225, guinea pigs were subjected to an aerosol containing 30% citric acid, 30 minutes after subcutaneous administration of test compound as a solution in 0.85% (w/w) saline, and the number of coughs during a 121/2-minute exposure counted.

[6] = test system: marmosets; test: Toxicology, 14-day subcutaneous administration, marmosets; conditions: s.c. daily for 14 days at 7.5, 15 or 30 mg/kg per day (as peptide per se)
Method: (§4) The diacetate product of Example 1 was administered subcutaneously to rats and marmosets as a solution in 0.85% (w/w) saline at a volume of 0.1 ml/100 g bodyweight. For each species the compound was given daily for 14 days at a dose (calculated as the peptide per se) selected from 7.5, 15 and 30 mg/kg bodyweight per day.

[7] = test system: rats; test: Toxicology, 14-day subcutaneous administration, rats; conditions: rat; s.c. daily for 14 days at 7.5, 15 or 30 mg/kg per day (as peptide per se)
Method: as §4

[8] = test system: Female Cobs Wistar rats; test: Antidiarrhoeal activity (castor oil-induced diarrhoea); conditions: calculated as the peptide per se; for ED50 (mg/kg, s.c.) antidiarrhoeal, 1.5 hrs.: 1.5 hrs. post castor oil; for ED50 (mg/kg, s.c.) antidiarrhoeal, 2.0 hrs.: 2.0 hrs. post castor oil; for ED50 (mg/kg, s.c.) antidiarrhoeal, 3.0 hrs.: 3.0 hrs. post castor oil
Method: Female Cobs Wistar rats (Charles River) were starved for 24 hours prior to subcutaneous administration of the test compound as a solution in 0.85% (w/w) saline and at a volume of 10 ml/kg. Fifteen minutes after the compound each rat received 1 ml. castor oil given orally and the animals were then observed for the appearance of diarrhoea.

Row | Molecule | ED50 [1] [mg/kg] | ED50 [2] [mg/kg] | Dose ratio (a):(b) [2] | ED50 [3] [mg/kg] | ED50 [4] [mg/kg] | ED50 (mg/kg, s.c.), hotplate test [1] [mg/kg] | ED50 (dose required to reduce the number of coughs by 50%) [5] [mg/kg] | ED50 (mg/kg, s.c.) Saline control (b) [2] [mg/kg] | clinical signs observed [6] | ED50 (mg/kg, s.c.) Acetic acid writhing [3] [mg/kg] | toxicity attributable to the compound [7] | ED50 (mg/kg, s.c.) PBQ writhing [4] [mg/kg] | ED50 (mg/kg, s.c.) antidiarrhoeal, 1.5 hrs. [8] [mg/kg] | ED50 (mg/kg, s.c.) antidiarrhoeal, 2.0 hrs. [8] [mg/kg] | ED50 (mg/kg, s.c.) antidiarrhoeal, 3.0 hrs. [8] [mg/kg]
1 | CCC(=O)O[C@](Cc1ccccc1)(c1ccccc1)[C@H](C)CN(C)C [Dextropropoxyphene, reference compound] | 25.9 | 6.8 | 1.0 | 4.2 | 2.6 | – | – | – | – | – | – | – | – | – | –
2 | N=C(N)NCCC[C@@H](NC(=O)[C@@H](N)Cc1ccc(O)cc1)C(=O)NCC(=O)N[C@@H](Cc1ccc([N+](=O)[O-])cc1)C(=O)N1CCC[C@H]1C(N)=O [Ex. 1, H--Tyr--D--Arg--Gly--Phe(4--NO2)--Pro.NH2 diacetate] (H-Y[dR]G[Phe(4-NO2)]P-NH2) | – | – | 4.1 | – | – | 94.8 | 0.26 | 4.6 | transient post-dose vomiting and salivation at 30 mg/kg and to a lesser extent at the lower doses | 4.3 | No toxicity attributable to the compound was seen | 4.0 | 0.79 | 3.19 | 54.9
3 | COc1ccc2c(c1)c(CC(=O)O)c(C)n2C(=O)c1ccc(Cl)cc1 [Indomethacin, reference compound] | > 100 | – | – | – | 0.9 | – | – | – | – | – | – | – | – | – | –
4 | CN1CC[C@]23c4c5ccc(O)c4O[C@H]2[C@@H](O)C=C[C@H]3[C@H]1C5 [Morphine, reference compound] | 1.8 | 0.4 | – | – | 0.38 | – | – | – | – | – | – | – | – | – | –
5 | CC(C)=CCN1CCC2(C)c3cc(O)ccc3CC1C2C (stereo not drawn) [Pentazocine, reference compound] | > 100 | – | – | 2.3 | – | – | – | – | – | – | – | – | – | – | –
6 | H--Tyr--D--Met(Me)--Gly--Phe(4NO2)--Pro.NH2 chloride, hydrochloride [Ex. 2] | – | – | 3.3 | – | – | 129.5 | – | 1.5 | – | 1.2 | – | 4.6 | 0.16 | 0.89 | 8.61
7 | N--AmidinoTyr--D--Met(Me)--Gly--Phe(4NO2)--Pro.NH2 chloride, hydrochloride [Ex. 4] | – | – | 4.2 | – | – | 43.8 | – | 0.7 | – | 0.6 | – | 1.0 | 0.07 | 0.14 | 0.84
